# Target: T1, recombinant human VDAC1 (hVDAC1) (Homo sapiens, UniProt P21796)
# T1 construct: His (N); GST (N); purchased LSBio LS-G25810; host or cells: E. coli
# Experiment: Microscale Thermophoresis (MST) binding assay with labeled VDAC1
# Conditions: MST plot of FIG. 1
# From the text: MicroScale Thermophoresis (MST) is a biophysical technique that measures the strength of interaction (affinity) between two molecules by detecting variations in fluorescence signal as a result of an IR-laser induced temperature change. The range of the variation in the fluorescence signal correlates with the binding of a ligand to a fluorescent target. By that it allows for quantitative analysis of molecular interactions in solution on the microliter scale with high sensitivity.The MST signal is composed of two major factors: The TRIC effect and the thermophoresis. TRIC stands for Temperature-Related Intensity-Change and describes how the fluorescence intensity of a fluorophore depends on the local temperature of the solution. For the vast majority of fluorophores, the fluorescence intensity decreases with increasing temperature. Most importantly, however, the extent of the temperature dependence is strongly related to the chemical environment of the fluorophore. This environment is sensitively affected by the binding of a ligand molecule to the fluorescently labeled target molecule (via conformational changes or ligand-dye proximity). The second component of the MST-signal, the thermophoresis describes the movement of molecules along temperature gradients which results in a quantifiable change of the local concentration of the target molecules. As these target molecules are fluorescently labeled in MST, such concentration changes can be monitored simply by fluorescence measurements. This directed movement of molecules depends on their molecular size, charge, and hydration shell. Binding of a ligand to a target molecule leads to the change of at least one of these parameters and therefore to an altered thermophoretic movement of the target-ligand complex compared to the single molecules alone. In sum, both TRIC and thermophoresis contribute to the overall MST-signal, which is detected by fluorescence measurement. Due to this robust physical principle and direct monitoring, MST can be used for determining the affinity and binding strength of almost any kind of molecular interaction or modification of small molecules, proteins, peptides, DNA, sugars, or molecular complexes.
# Reconstituted N-terminal His-GST tagged E. coli recombinant human VDAC1 (hVDAC1) was buffer exchanged into protein labeling buffer due to the primary amine of the Tris lyophilization buffer interferes with NHS-based labeling. The labeling buffer was kept as close to the storage buffer of the target protein as given on the protein data sheet (LSBio LS-G25810). Tris was replaced by HEPES. PLURONIC® F-127 was added to 0.05% in order to enhance protein recovery in the final dye removal step. The total volume of the labeling batch was 100 µL. The labeling time was 30 minutes. The labeling reaction was performed at room temperature. Any unbound or unreacted dye was separated from the labeled protein on a gravity-flow gel-filtration column (GE Healthcare, PD Minitrap G-25, GE28-9180-07). The final target buffer was kept as close to the original protein storage buffer as possible. It contained Tris again instead of HEPES.
# The first step of the technical assay establishment was a so-called “noise test”. In this test, the intrinsic MST-noise of the labeled target protein was tested. Subsequently, a reference compound or positive control (CAS number: 2086257-77-2) was characterized to confirm previously reported VDAC1 binding (Zhang et al (2019)). Preserving Insulin Secretion in Diabetes by Inhibiting VDAC1 Overexpression and Surface Translocation in β Cells″. Cell Metabolism 29, 64-77.). In short, serial dilutions of the compound having CAS number: 2086257-77-2 was prepared in a way to match the final buffer conditions in the reaction mix (assay buffer). The highest concentration of ligand was 10.0 mM and the lowest 4.88 µM. A total of 12 dilution steps were prepared. […]
# T1 sequence (P21796 whole entry): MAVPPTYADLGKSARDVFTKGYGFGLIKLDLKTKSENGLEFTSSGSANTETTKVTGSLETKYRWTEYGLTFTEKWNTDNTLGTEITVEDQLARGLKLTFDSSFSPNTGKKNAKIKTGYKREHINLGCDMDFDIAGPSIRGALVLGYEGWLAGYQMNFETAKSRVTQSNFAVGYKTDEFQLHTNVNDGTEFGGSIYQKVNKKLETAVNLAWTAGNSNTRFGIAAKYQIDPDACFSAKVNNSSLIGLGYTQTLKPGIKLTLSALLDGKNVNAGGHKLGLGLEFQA
S/N of MST plot,dFnorm of MST plot,SMILES
20.1,23.9,"O=C(CC(CO)N1CC2=C(CN(c3ccc(OC(F)(F)F)cc3)C2)C1)Nc1ccc(Cl)cc1 (centres unmarked) [Example 4, N-(4-chlorophenyl)-4-hydroxy-3-{5-[4-(trifluoromethoxy)phenyl]-1H,2H,3H,4H,5H,6H-pyrrolo[3,4-c]pyrrol-2-yl}butanamide]"

# Same assay, conditions: MST, 5 nM labeled VDAC1, 25° C., 12-point dilution 100-0.04 µM; read-out: VDAC1 affinity (KD)
row,SMILES,Kd [µM]
1,"O=C(CC(CCO)N1CCN(c2ccc(OC(F)(F)F)cc2)CC1)Nc1ccc(Cl)cc1 (centres unmarked) [Example 2, N-(4-chlorophenyl)-5-hydroxy-3-{4-[4-(trifluoromethoxy)phenyl]piperazin-1-yl}pentanamide]",8.4
2,"O=C(CC(CO)N1CCCC2C1CCN2c1ccc(OC(F)(F)F)cc1)Nc1ccc(Cl)cc1 (centres unmarked) [Example 8, N-(4-chlorophenyl)-4-hydroxy-3-{1-[4-(trifluoromethoxy)phenyl]-octahydro-1H-pyrrolo[3,2-b]pyridin-4-yl}butanamide]",2.8
3,"O=C(NCC(CO)N1CCN(c2ccc(OC(F)(F)F)cc2)CC1)c1ccc(Cl)cc1 (centres unmarked) [Example 1, 4-chloro-N-(3-hydroxy-2-{4-[4-(trifluoromethoxy)phenyl]piperazin-1-yl}propyl)benzamide]",12
4,"O=C(CC(CO)N1CCCC2(CCCN(c3ccc(OC(F)(F)F)cc3)C2)C1)Nc1ccc(Cl)cc1 (centres unmarked) [Example 10, N-(4-chlorophenyl)-4-hydroxy-3-{8-[4-(trifluoromethoxy)phenyl]-2,8-diazaspiro[5.5]undecan-2-yl}butanamide]",1.9
5,"O=C(CC(CO)N1CCOC2(CCN(c3ccc(OC(F)(F)F)cc3)C2)C1)Nc1ccc(Cl)cc1 (centres unmarked) [Example 5, N-(4-chlorophenyl)-4-hydroxy-3-{2-[4-(trifluoromethoxy)phenyl]-6-oxa-2,9-diazaspiro[4.5]decan-9-yl}butanamide]",3.8

# Next, values leading:
row,Kd [µM],SMILES
1,13.1,"O=C(CC(CO)N1CC2(CCN(c3ccc(OC(F)(F)F)cc3)C2)C1)Nc1ccc(Cl)cc1 (centres unmarked) [Example 7, N-(4-chlorophenyl)-4-hydroxy-3-{6-[4-(trifluoromethoxy)phenyl]-2,6-diazaspiro[3.4]octan-2-yl}butanamide]"
2,11.4,"O=C(CC(CO)N1CC2CN(c3ccc(OC(F)(F)F)cc3)CC2C1)Nc1ccc(Cl)cc1 (centres unmarked) [Example 9, N-(4-chlorophenyl)-4-hydroxy-3-{5-[4-(trifluoromethoxy)phenyl]-octahydropyrrolo[3,4-c]pyrrol-2-yl}butanamide]"
3,5.1,"O=C(CC(CO)N1CC2=C(CN(c3ccc(OC(F)(F)F)cc3)C2)C1)Nc1ccc(Cl)cc1 (centres unmarked) [Example 4, N-(4-chlorophenyl)-4-hydroxy-3-{5-[4-(trifluoromethoxy)phenyl]-1H,2H,3H,4H,5H,6H-pyrrolo[3,4-c]pyrrol-2-yl}butanamide]"
4,5.2,"O=C(CC(CO)N1CCCN(c2ccc(OC(F)(F)F)cc2)CC1)Nc1ccc(Cl)cc1 (centres unmarked) [Example 3, N-(4-chlorophenyl)-4-hydroxy-3-{4-[4-(trifluoromethoxy)phenyl]-1,4-diazepan-1-yl}butanamide]"
5,9.8,"O=C(CC(CO)N1CCCC(C2CN(c3ccc(OC(F)(F)F)cc3)C2)C1)Nc1ccc(Cl)cc1 (centres unmarked) [Example 6, N-(4-chlorophenyl)-4-hydroxy-3-(3-{1-[4-(trifluoromethoxy)phenyl]azetidin-3-yl}piperidin-1-yl)butanamide]"
6,14,"O=C(CC(CO)N1CCN(c2ccc(OC(F)(F)F)cc2)CC1)Nc1ccc(Cl)cc1 (centres unmarked) [CAS: 2086257-77-2, N-(4-chlorophenyl)-4-hydroxy-3-{4-[4-(trifluoromethoxy)phenyl]piperazin-1-yl}butanamide, reference compound]"

# Test system: islets of human T2D organ donors
# Experiment: not given
# Conditions: acute exposure of the T2D islets; cited from earlier work
row,SMILES,glucose-stimulated insulin secretion (GSIS)
1,"O=C(CC(CO)N1CCN(c2ccc(OC(F)(F)F)cc2)CC1)Nc1ccc(Cl)cc1 (centres unmarked) [CAS: 2086257-77-2, N-(4-chlorophenyl)-4-hydroxy-3-{4-[4-(trifluoromethoxy)phenyl]piperazin-1-yl}butanamide, reference compound]",restored GSIS

# From patent US20230348464A1, “NOVEL VDAC1 INHIBITORS” (ABARCEO AB, priority 2020, published 2023)
